Measured values taken from US6355799B1, “Substituted benzene compounds, process for their preparation, and herbicidal and defoliant compositions containing them” (ISK Americas Incorporated, priority 1997, dated 2002).

What was measured:
Type in all cases: in vivo
[1] = tested on: redroot pigweed (Amaranthus retroflexus, AMARE); assay: Pre-emerge test, greenhouse herbicide activity screening; conditions: pre-emerge, 14 days after application, rating scale 0-100
Procedure, shortened: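 Rating: 0–100 visual injury, 14 DAA. Application: acetone, 187 l/ha, 15–1000 g ai/ha, flat-fan track sprayer with nozzle 40–45 cm above soil or canopy. Post-emerge runs used 0.25% v/v surfactant on 2–3 leaf plants.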

[2] = tested on: sicklepod (Cassia obtusifolia, CASOB); assay: Post-emerge test, greenhouse herbicide activity screening; conditions: post-emerge, 14 days after application, rating scale 0-100
Procedure, shortened: (§1)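 Compounds in acetone were track-sprayed at 15–1000 g ai/ha: pre-emergence onto soil sown the previous day, then top-watered to incorporate and later bottom-watered; post-emergence onto 2–3 leaf plants with 0.25% v/v surfactant, bottom-watered only. Ratings on a 0–100 phytotoxicity scale were taken at day 14.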

[3] = tested on: velvetleaf (Abutilon theophrasti, ABUTH); assay: as above; conditions: post-emerge, 14 days after application, rating scale 0-100
Procedure, shortened: as §1

[4] = tested on: large crabgrass (Digitaria sanguinalis, DIGSA); assay: as above; conditions: post-emerge, 14 days after application, rating scale 0-100
Procedure, shortened: as §1

[5] = tested on: lambsquarters (Chenopodium album, CHEAL); assay: as above; conditions: post-emerge, 14 days after application, rating scale 0-100
Procedure, shortened: as §1

[6] = tested on: ivyleaf morningglory (Ipomoea hederacea, IPOHE); assay: as above; conditions: post-emerge, 14 days after application, rating scale 0-100
Procedure, shortened: as §1

[7] = tested on: green foxtail (Setaria viridis, SETVI); assay: as above; conditions: post-emerge, 14 days after application, rating scale 0-100
Procedure, shortened: as §1

[8] = tested on: barnyardgrass (Echinochloa crus-galli, ECHCG); assay: as above; conditions: post-emerge, 14 days after application, rating scale 0-100
Procedure, shortened: as §1

[9] = tested on: common ragweed (Ambrosia artemisizfolia L., AMBEL); assay: as above; conditions: post-emerge, 14 days after application, rating scale 0-100
Procedure, shortened: as §1

[10] = tested on: redroot pigweed (Amaranthus retroflexus, AMARE); assay: as above; conditions: post-emerge, 14 days after application
Procedure, shortened: as §1

[11] = tested on: sicklepod (Cassia obtusifolia, CASOB); assay: Pre-emerge test, greenhouse herbicide activity screening; conditions: pre-emerge, 14 days after application, rating scale 0-100
Procedure, shortened: (§2)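 Compounds in acetone were track-sprayed at 15-1000 g ai/ha (187 l/ha) on sandy loam pots: pre-emerge one day after seeding, post-emerge at 2-3 leaf stage with 0.25% v/v non-ionic surfactant. Phytotoxicity was rated 14 days later on a 0 (no damage) to 100 (complete death) scale.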

[12] = tested on: velvetleaf (Abutilon theophrasti, ABUTH); assay: as above; conditions: pre-emerge, 14 days after application, rating scale 0-100
Procedure, shortened: as §2

[13] = tested on: large crabgrass (Digitaria sanguinalis, DIGSA); assay: as above; conditions: pre-emerge, 14 days after application, rating scale 0-100
Procedure, shortened: as §2

[14] = tested on: lambsquarters (Chenopodium album, CHEAL); assay: as above; conditions: pre-emerge, 14 days after application, rating scale 0-100
Procedure, shortened: as §2

[15] = tested on: ivyleaf morningglory (Ipomoea hederacea, IPOHE); assay: as above; conditions: pre-emerge, 14 days after application, rating scale 0-100
Procedure, shortened: as §2

[16] = tested on: green foxtail (Setaria viridis, SETVI); assay: as above; conditions: pre-emerge, 14 days after application, rating scale 0-100
Procedure, shortened: as §2

[17] = tested on: barnyardgrass (Echinochloa crus-galli, ECHCG); assay: as above; conditions: pre-emerge, 14 days after application, rating scale 0-100
Procedure, shortened: as §2

[18] = tested on: common ragweed (Ambrosia artemisizfolia L., AMBEL); assay: as above; conditions: pre-emerge, 14 days after application, rating scale 0-100
Procedure, shortened: as §2

[19] = tested on: johnsongrass (Sorghum halepense, SORHA); assay: as above; conditions: pre-emerge, 14 days after application, rating scale 0-100
Procedure, shortened: as §2

[20] = tested on: field corn (Zea mays L., var. Dekalb 535, CORN); assay: Post-emerge test, crop safety; conditions: post-emerge, 14 days after application, rating scale 0-100
Procedure, shortened: as §2

[21] = tested on: upland rice (Oryza sp., var. Tebonnet, RICE); assay: Post-emerge test, crop safety; conditions: post-emerge, 14 days after application, rating scale 0-100
Procedure, shortened: as §2

[22] = tested on: field corn (Zea mays L., var. Dekalb 535, CORN); assay: Pre-emerge test, crop safety; conditions: pre-emerge, 14 days after application, rating scale 0-100
Procedure, shortened: (§3)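 Compounds in acetone were track-sprayed at 187 l/ha, 15–1000 g ai/ha, onto sandy loam pots. Pre-emerge seeds were sown one day before spraying, with surface watering afterwards. Post-emerge plants were at the 2–3 leaf stage and sprayed with 0.25% v/v non-ionic surfactant. Injury was rated 0–100 at 14 days.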

[23] = tested on: upland rice (Oryza sp., var. Tebonnet, RICE); assay: Pre-emerge test, crop safety; conditions: pre-emerge, 14 days after application, rating scale 0-100
Procedure, shortened: as §3

CCOc1c(Cl)cc(F)c(-n2c(=O)cc(C(F)(F)F)n(C)c2=O)c1Cl [14-62]
phytotoxicity rating AMARE ([1]; 63 g ai/ha): 40
phytotoxicity rating AMARE ([1]; 250 g ai/ha): 100
Post-emerge Herbicidal Activity CASOB (phytotoxicity rating) ([2]; 63 g ai/ha): 0
Post-emerge Herbicidal Activity CASOB (phytotoxicity rating) ([2]; 250 g ai/ha): 30
Post-emerge Herbicidal Activity ABUTH (phytotoxicity rating) ([3]; 63 g ai/ha): 40
Post-emerge Herbicidal Activity ABUTH (phytotoxicity rating) ([3]; 250 g ai/ha): 60
Post-emerge Herbicidal Activity DIGSA (phytotoxicity rating) ([4]; 63 g ai/ha): 0
Post-emerge Herbicidal Activity DIGSA (phytotoxicity rating) ([4]; 250 g ai/ha): 0
Post-emerge Herbicidal Activity CHEAL (phytotoxicity rating) ([5]; 63 g ai/ha): 10
Post-emerge Herbicidal Activity CHEAL (phytotoxicity rating) ([5]; 250 g ai/ha): 20
Post-emerge Herbicidal Activity IPOHE (phytotoxicity rating) ([6]; 63 g ai/ha): 30
Post-emerge Herbicidal Activity IPOHE (phytotoxicity rating) ([6]; 250 g ai/ha): 50
Post-emerge Herbicidal Activity SETVI (phytotoxicity rating) ([7]; 63 g ai/ha): 0
Post-emerge Herbicidal Activity SETVI (phytotoxicity rating) ([7]; 250 g ai/ha): 0
Post-emerge Herbicidal Activity ECHCG (phytotoxicity rating) ([8]; 63 g ai/ha): 0
Post-emerge Herbicidal Activity ECHCG (phytotoxicity rating) ([8]; 250 g ai/ha): 0
Post-emerge Herbicidal Activity AMBEL (phytotoxicity rating) ([9]; 63 g ai/ha): 40
Post-emerge Herbicidal Activity AMBEL (phytotoxicity rating) ([9]; 250 g ai/ha): 30
Post-emerge Herbicidal Activity AMARE (phytotoxicity rating) ([10]; 63 g ai/ha, rating scale 0-100 (0 no damage, 100 complete death)): 30
Post-emerge Herbicidal Activity AMARE (phytotoxicity rating) ([10]; 250 g ai/ha, rating scale 0-100): 50
phytotoxicity rating CASOB ([11]; 63 g ai/ha): 0
phytotoxicity rating CASOB ([11]; 250 g ai/ha): 0
phytotoxicity rating ABUTH ([12]; 63 g ai/ha): 15
phytotoxicity rating ABUTH ([12]; 250 g ai/ha): 95
phytotoxicity rating DIGSA ([13]; 63 g ai/ha): 0
phytotoxicity rating DIGSA ([13]; 250 g ai/ha): 50
phytotoxicity rating CHEAL ([14]; 63 g ai/ha): 20
phytotoxicity rating CHEAL ([14]; 250 g ai/ha): 80
phytotoxicity rating IPOHE ([15]; 63 g ai/ha): 0
phytotoxicity rating IPOHE ([15]; 250 g ai/ha): 0
phytotoxicity rating SETVI ([16]; 63 g ai/ha): 0
phytotoxicity rating SETVI ([16]; 250 g ai/ha): 60
phytotoxicity rating ECHCG ([17]; 63 g ai/ha): 0
phytotoxicity rating ECHCG ([17]; 250 g ai/ha): 20
phytotoxicity rating AMBEL ([18]; 63 g ai/ha): 0
phytotoxicity rating AMBEL ([18]; 250 g ai/ha): 30
phytotoxicity rating SORHA ([19]; 63 g ai/ha): 0
phytotoxicity rating SORHA ([19]; 250 g ai/ha): 60
Post-emerge Herbicidal Activity CORN (crop damage rating) ([20]; 63 g ai/ha): 5
Post-emerge Herbicidal Activity CORN (crop damage rating) ([20]; 250 g ai/ha): 5
Post-emerge Herbicidal Activity RICE (crop damage rating) ([21]; 63 g ai/ha): 0
Post-emerge Herbicidal Activity RICE (crop damage rating) ([21]; 250 g ai/ha): 5
phytotoxicity rating CORN ([22]; 63 g ai/ha): 0
phytotoxicity rating CORN ([22]; 250 g ai/ha): 5
phytotoxicity rating RICE ([23]; 63 g ai/ha): 0
phytotoxicity rating RICE ([23]; 250 g ai/ha): 15
